From a melting point compilation (Tetko et al.; mined from patent text by program, amines drawn as free bases though some values may be those of a salt)

Row | melting point [°C] | SMILES
1 | 143 to 145 | CCOC(=O)C(=CNc1ccnc(-c2ccncc2)n1)C(=O)OCC
2 | 178 to 179 | O=C(NC(Cc1ccc(OCc2ccccc2)cc1)C(=O)O)c1cn2nc(SCc3ccccc3)ccc2n1 (configuration not stated)
3 | > 290 | Cc1[nH]c(=O)c(C#N)c2c1CC(c1ccccc1)CC2 (configuration not stated)
4 | 129 to 130 | Cc1ccc(-c2c(C(=O)NCc3cc(C(F)(F)F)cc(C(F)(F)F)c3)n(CCC(C)CO)c(=O)c3ncccc23)cc1 (racemic)
5 | 129 to 131 | CNC(=O)N(O)Cc1ccoc1
6 | 95 to 97 | CC1(S(=O)(=O)C2(C)C=CC=CC2O)C=CC=CC1O (configuration not stated)
7 | 142 to 144 | O=C(CCCBr)Nc1ccc(O)cc1
8 | 176 | NS(=O)(=O)c1ccc(-n2nc(CCCNC(=O)Nc3cccc(C(F)(F)F)c3)cc2-c2ccccc2)cc1
9 | 150 to 153 | O=C1CC2Cc3ccccc3C2N1 (configuration not stated)
10 | 112 | CCOC(=O)CCCCCCCCOC1OC(CO)C(O)C(O)C1NC(C)=O (configuration not stated)
11 | 272 to 273 | CNC(=O)c1cc2cc(S(N)(=O)=O)sc2s1
12 | 140 to 141 | CCOC(=O)c1c(CCl)nc2ccc(Cl)cc2c1-c1ccc(Cl)cc1
13 | 137 | CCCCCS(=O)(=O)NC(=O)CC(C)c1ccc(OCCOC)cc1Oc1ncc(C(F)(F)F)cc1Cl (configuration not stated)
14 | 110 | CCc1nn(CCOc2ccc(C=O)cc2)c(=O)c2ccccc12
15 | 132 | Cc1ccc(S(=O)(=O)N(C)c2ccccc2[N+](=O)[O-])cc1
16 | 114 to 115 | Cc1c(C)c2c(c(C)c1OCc1ccccc1)C(=O)C(C)(C)O2
17 | 266 to 267 | CC(=O)Nc1nc2c(s1)-c1nn(C(=O)c3ccccc3)cc1CC2
18 | 230 | COc1ccc(CSc2ccncc2C(=O)O)cc1

Row | melting point [°C] | SMILES
19 | 174 to 176 | O=C(OCC1OC(OC(=O)C2CCCCC2)C(OC(=O)C2CCCCC2)C(OC(=O)C2CCCCC2)C1OC(=O)C1CCCCC1)C1CCCCC1 (configuration not stated)
20 | 196 to 198 | Cn1cc(-c2ncc(-c3ccc4cc(OCC#N)ccc4c3)o2)c2ccccc21
21 | 188 | CCc1ccc2c(c1)C=Cc1cc(C)ccc1C2c1cn(-c2ccnc(N(C)CC(=O)Nc3nc(CC(=O)O)cs3)n2)c(=O)[nH]c1=O (configuration not stated)
22 | 153 | Cn1c([N+](=O)[O-])cnc1COc1ccc([N+](=O)[O-])cc1C(F)(F)F
23 | 148 to 150 | Cc1cc(C)cc(-c2cn(C)cc(-c3ccccc3)c2=O)c1
24 | 222 to 226 | CN(Cc1ccc(NC(=O)C2=Cc3cc(-c4ccc5c(c4)CCC(C)(C)O5)ccc3S(=O)(=O)CC2)cc1)C1CCOCC1
25 | 163 to 164 | COC(=O)n1c(=O)oc2c(Cl)c(Cl)c(Cl)cc21
26 | 157 to 158 | Oc1ccc(C2=C(c3ccc(OCCCCCSCCCC(F)(F)C(F)(F)F)cc3)c3ccc(O)cc3CCC2)cc1
27 | 68 to 69 | CCOC(=O)C=Cc1cc(OC)c(OCc2ccccc2)c(OC)c1
28 | 126 | O=Cc1cnc2n1CCc1ccccc1C2=C1CCN(C2CCN(C(=O)c3cc(C(F)(F)F)cc(C(F)(F)F)c3)C(Cc3ccccc3)C2)CC1 (configuration not stated)
29 | > 275 | N#Cc1cccc(/C=C/c2cc(Cl)cnc2N)c1
30 | 124 to 127 | CCCc1nc2c(N)nc3cc(OCCN4CCCC4)ccc3c2s1
31 | 195 to 196 | Cc1ccc2c(c1)c1cc(-c3ccc(OCC#N)cc3)c(=O)n(C)c1n2C
32 | 262 to 264 | O=C(O)c1ccc2c(c1)C(=O)N(c1ccccc1C(=O)O)C2=O
33 | 165 to 166 | COc1cc2cc(-c3ccc(OCC(O)CNC(C)(C)C)cc3)n(C)c(=O)c2cc1OC (configuration not stated)
34 | 172 to 173 | Cc1cc(=O)c2ccc(OCCCN3CCC(NC(=O)Cc4ccccc4)CC3)cc2o1
35 | 131 to 134 | CC(C)OC(=O)C1(F)C(=O)NC(=O)NC1O/N=C\c1ccco1 (configuration not stated)
36 | 93 to 94 | COC(=O)N=C(NC(=O)Nc1ccc(Cl)c(C(=O)OC(C)C)c1)SC

The remaining lines, values behind:

Row | SMILES | melting point [°C]
37 | CCN1C(=O)C(C)(C)C(=O)N(C)c2cc(CN(CCn3cc(C)c4oc(C)cc4c3=O)Cc3cc(C)n(C)n3)ccc21 | 113 to 116
38 | Cc1oc(C)c2c1C(=O)c1c(O)ccc(O)c1C2=O | 255 to 256
39 | CS(=O)(=O)c1ccc(-c2cc(C(=O)CCCCCO)nn2C2CCCCC2)cc1 | 125 to 127
40 | CCOC(=O)c1ccc(/C=C(\C)c2ccc(O)c(C3(C)CCCCC3)c2)cc1 | 124
41 | Cn1nnc(COc2nn3c(-c4ccccc4)nnc3cc2-c2ccccc2)n1 | 228 to 233
42 | COc1ccc(-c2ccc(C(C)=NOCCOc3ccc(CC4SC(=O)NC4=O)cc3)cc2)c(OC)c1 (configuration not stated) | 186 to 188
43 | Cc1c(F)c(N2CCC(C)(CN)C2)c(F)c2c1c(=O)c(C(=O)O)cn2C1CC1 (configuration not stated) | 182 to 184
44 | CC1(O)c2ccccc2COc2ccc(C(=O)O)cc21 (configuration not stated) | 258
45 | COc1cccc2c1CCC(C(=O)O)C2C(=O)O (configuration not stated) | 200 to 201
46 | Clc1ccc(-n2nc3c(c2Br)CCC3)cc1 | 109 to 112
47 | O=C1c2ccccc2OC1Br (configuration not stated) | 60
48 | NC(=O)c1nc(-c2ccc(=O)[nH]c2)c(-c2ccccc2)nc1N | 215 to 220
49 | CS(=O)(=O)OCCN(CCOS(C)(=O)=O)c1cc(C(=O)O)c([N+](=O)[O-])cc1[N+](=O)[O-] | 200 to 210
50 | CCCCCCCCCCOc1ccc(CC(=O)OC)cc1 | 42 to 44
51 | CN1CCN(c2cccc3c2C[C@H](NC(=O)c2ccc(N4CCOCC4)cc2)CC3)CC1 | 230 to 231
52 | CNS(=O)(=O)c1cc2c(c(C(=O)NCC3CCCN3C)c1)OCCO2 (configuration not stated) | 187 to 188

Row | SMILES | melting point [°C]
53 | COc1ccc(C2c3cc(NC(=O)CC(C)(C)C)c(C)c(C)c3OC2(C)C)cc1 (configuration not stated) | 169 to 170
54 | COC(=O)c1cc2cc3c(cc2[nH]1)OCC(=O)N3 | 188 to 196
55 | CC1(C)Oc2ccc(C#N)cc2[C@@H](n2ncccc2=O)[C@@H]1O (relative stereo) | 211 to 215
56 | CCOC(=O)COc1ccc(SCc2cccc3nc(-c4ccc(C(F)(F)F)cc4)oc23)cc1C | 180 to 182
57 | O=C(OCC1OC(OCc2ccccc2)C(OCc2ccccc2)C(OCc2ccccc2)C1OCc1ccccc1)c1ncc[nH]1 (configuration not stated) | 105 to 108
58 | COc1ccc2[nH]cc(C3CCN(C(=O)NCC4CCC(c5ccccc5)(N(C)C)CC4)CC3)c2c1 (configuration not stated) | 98 to 100
59 | NS(=O)(=O)c1cc2cc(P(=O)(O)O)c(=O)[nH]c2cc1C(F)(F)F | 240 to 244
60 | COc1ccc2c(c1)N(CC1CN3CCC1CC3)c1ccccc1S2 (configuration not stated) | 135 to 136
61 | COc1ccc2c(c1)nnc1nnc(C)n12 | 259 to 261
62 | Cc1ccc(-c2ccccc2C(=O)NCCC#N)cc1 | 102 to 104
63 | COc1cc(N(C(=O)[C@@H](N)Cc2cnc[nH]2)S(=O)(=O)c2ccc3c(ccn3C)c2)cc(OC)c1OC | 175 to 177
64 | Cc1cc(-c2ccccc2)n2nc(SCc3ccccc3)nc2n1 | 110 to 111
65 | CCCn1c(=O)c(=O)[nH]c2cc([N+](=O)[O-])c(-n3ccc(=O)c([N+](=O)[O-])c3)cc21 | > 300
66 | COC(=O)c1ccc(Cc2c(Cl)n(C)c3ccc(CC(C)NC(=O)N(C)C)cc23)c(OC)c1 (configuration not stated) | 148
67 | CC(C)C(=O)c1ccc(N2CCN(C)CC2)cc1 | 74 to 76
